Source: article PMC5760719, “Biotransformation of polyunsaturated fatty acids to bioactive hepoxilins and trioxilins by microbial enzymes” (Nature Communications, 2018)

Experiments:
Experiment in all cases: product formation by HPLC
Format in all cases: biochemical
[1] = biological target: T1, 12-LOX (ARA 12-lipoxygenase, MXAN_1745) (Myxococcus xanthus, UniProt Q1DBH8); conditions: pathway reaction with purified enzyme; dioxygenation to 12-HpEPE
T1 sequence (Q1DBH8 1-715): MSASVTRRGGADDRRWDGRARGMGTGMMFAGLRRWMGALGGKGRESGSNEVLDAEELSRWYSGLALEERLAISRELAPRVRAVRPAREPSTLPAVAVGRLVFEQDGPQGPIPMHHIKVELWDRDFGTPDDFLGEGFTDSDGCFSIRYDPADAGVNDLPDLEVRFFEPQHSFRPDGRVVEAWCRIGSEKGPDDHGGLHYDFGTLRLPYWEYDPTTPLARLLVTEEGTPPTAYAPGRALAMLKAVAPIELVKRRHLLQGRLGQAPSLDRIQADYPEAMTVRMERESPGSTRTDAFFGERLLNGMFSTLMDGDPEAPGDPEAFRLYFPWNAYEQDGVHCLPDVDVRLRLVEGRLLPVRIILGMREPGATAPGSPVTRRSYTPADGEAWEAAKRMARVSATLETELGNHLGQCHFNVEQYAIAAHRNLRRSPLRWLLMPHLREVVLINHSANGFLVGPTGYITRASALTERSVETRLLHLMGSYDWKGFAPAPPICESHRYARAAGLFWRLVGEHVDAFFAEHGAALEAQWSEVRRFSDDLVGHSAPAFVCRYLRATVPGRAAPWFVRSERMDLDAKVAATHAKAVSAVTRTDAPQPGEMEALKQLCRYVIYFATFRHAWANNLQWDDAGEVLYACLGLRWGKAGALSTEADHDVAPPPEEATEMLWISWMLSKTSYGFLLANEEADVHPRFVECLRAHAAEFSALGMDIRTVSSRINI

[2] = biological target: T2, 11-LOX (ARA 11-lipoxygenase, MXAN_1744) (Myxococcus xanthus, UniProt Q1DBH9); conditions: pathway reaction with purified enzyme; dioxygenation to 11-HpEPE
T2 sequence (Q1DBH9 1-675): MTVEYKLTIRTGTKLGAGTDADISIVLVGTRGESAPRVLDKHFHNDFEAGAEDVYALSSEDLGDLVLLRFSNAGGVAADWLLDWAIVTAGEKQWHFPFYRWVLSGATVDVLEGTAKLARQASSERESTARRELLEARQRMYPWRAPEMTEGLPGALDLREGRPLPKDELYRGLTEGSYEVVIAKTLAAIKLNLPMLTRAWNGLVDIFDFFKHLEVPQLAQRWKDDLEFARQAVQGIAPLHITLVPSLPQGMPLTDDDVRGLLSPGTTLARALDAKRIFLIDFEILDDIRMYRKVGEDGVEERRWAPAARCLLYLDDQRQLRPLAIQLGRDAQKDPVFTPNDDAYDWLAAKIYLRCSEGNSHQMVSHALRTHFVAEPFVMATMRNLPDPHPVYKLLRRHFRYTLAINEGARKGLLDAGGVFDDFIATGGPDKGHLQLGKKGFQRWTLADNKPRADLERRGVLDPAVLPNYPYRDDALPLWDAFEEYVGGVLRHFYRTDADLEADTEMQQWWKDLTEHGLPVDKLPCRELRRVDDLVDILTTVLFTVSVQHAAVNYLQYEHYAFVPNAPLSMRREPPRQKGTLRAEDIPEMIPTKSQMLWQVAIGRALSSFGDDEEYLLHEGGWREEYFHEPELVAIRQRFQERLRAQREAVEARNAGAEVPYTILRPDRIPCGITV

[3] = biological target: T3, EH (epoxide hydrolase, MXAN_1644) (Myxococcus xanthus, UniProt Q1DBS7); conditions: pathway reaction with purified enzymes; HXD3 formed by 11-LOX, hydrolysis to TrXD3
T3 sequence (Q1DBS7 1-318): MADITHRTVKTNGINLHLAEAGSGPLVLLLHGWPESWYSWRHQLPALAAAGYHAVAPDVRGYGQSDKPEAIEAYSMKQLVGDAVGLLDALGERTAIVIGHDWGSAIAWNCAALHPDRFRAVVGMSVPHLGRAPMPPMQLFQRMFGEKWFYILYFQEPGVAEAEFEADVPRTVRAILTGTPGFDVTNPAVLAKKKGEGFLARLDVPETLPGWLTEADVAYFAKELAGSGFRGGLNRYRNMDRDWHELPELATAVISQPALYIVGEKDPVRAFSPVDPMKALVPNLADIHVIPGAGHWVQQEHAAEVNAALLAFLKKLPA

Row | SMILES | product formation by HPLC [1] | product formation by HPLC [2] | product formation by HPLC [3]
1 | CC/C=C\C/C=C\C/C=C\C/C=C\C/C=C\CCCC(=O)O [EPA, eicosapentaenoic acid] | 12-LOX and 11-LOX converted EPA to 12-hydroperoxypentaenoic acid (HpEPE) and 11-HpEPE, respectively | 12-LOX and 11-LOX converted EPA to 12-hydroperoxypentaenoic acid (HpEPE) and 11-HpEPE, respectively | 
2 | CCCCC/C=C\C(O)C1OC1C/C=C\C/C=C\CCCC(=O)O (stereo not drawn) [HXD3] |  |  | HXB3 and HxD3, respectively, which were then converted to TrXB3 and TrXD3, respectively, by EH
